Assay results: ChEMBL document CHEMBL4725427, “Synthesis and SAR Studies of 1H-Pyrrolo[2,3-b]pyridine-2-carboxamides as Phosphodiesterase 4B (PDE4B) Inhibitors” (ACS Med Chem Lett, 2020)

Assays:
[1] = molecular target: 5-hydroxytryptamine receptor 1A (Homo sapiens) (UniProt P08908); assay: Inhibition of 5HT1A (unknown origin) relative to control; conditions: concentration not given here
[2] = molecular target: Alpha-1D adrenergic receptor (Homo sapiens) (UniProt P25100); assay: Inhibition of adrenoceptor alpha 1D (unknown origin) relative to control; conditions: concentration not given here
[3] = Metabolic stability in human liver microsomes assessed as intrinsic clearance; format: ADME, Microsome; conditions: read-out: CLH
[4] = molecular target: Muscarinic acetylcholine receptor M2 (Homo sapiens) (UniProt P08172); assay: Inhibition of muscarinic M2 receptor (unknown origin) relative to control; conditions: concentration not given here
[5] = molecular target: 5-hydroxytryptamine receptor 2B (Homo sapiens) (UniProt P41595); assay: Inhibition of 5HT2B (unknown origin) relative to control; conditions: concentration not given here
[6] = molecular target: 5-hydroxytryptamine receptor 1D (Homo sapiens) (UniProt P28221); assay: Inhibition of 5HT1D (unknown origin) relative to control; conditions: concentration not given here
Chain of 5-hydroxytryptamine receptor 1D (Homo sapiens) (P28221 whole entry): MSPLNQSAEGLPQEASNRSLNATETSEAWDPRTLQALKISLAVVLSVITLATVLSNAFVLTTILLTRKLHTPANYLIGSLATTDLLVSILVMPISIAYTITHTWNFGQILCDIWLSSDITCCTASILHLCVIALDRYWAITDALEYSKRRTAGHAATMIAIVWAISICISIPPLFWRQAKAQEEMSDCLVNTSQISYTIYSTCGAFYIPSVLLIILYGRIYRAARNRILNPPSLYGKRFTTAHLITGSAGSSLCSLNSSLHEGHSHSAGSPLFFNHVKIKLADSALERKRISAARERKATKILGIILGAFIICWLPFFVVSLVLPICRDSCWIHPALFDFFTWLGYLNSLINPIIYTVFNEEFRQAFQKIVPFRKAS

[7] = molecular target: T1, Sigma intracellular receptor 2 (Homo sapiens, UniProt Q5BJF2); assay: Inhibition of sigma2 receptor (unknown origin) relative to control; conditions: concentration not given here
T1 sequence (Q5BJF2 whole entry): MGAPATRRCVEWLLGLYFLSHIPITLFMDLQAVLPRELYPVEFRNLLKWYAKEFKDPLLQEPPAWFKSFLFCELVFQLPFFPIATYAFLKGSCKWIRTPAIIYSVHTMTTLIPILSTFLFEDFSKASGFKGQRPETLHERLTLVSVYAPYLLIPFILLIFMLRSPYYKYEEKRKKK

[8] = molecular target: D(1A) dopamine receptor (Homo sapiens) (UniProt P21728); assay: Inhibition of D1 (unknown origin) relative to control; conditions: concentration not given here
[9] = molecular target: Histamine H1 receptor (Homo sapiens) (UniProt P35367); assay: Inhibition of histamine H1 receptor (unknown origin) relative to control; conditions: concentration not given here
[10] = molecular target: 3',5'-cyclic-AMP phosphodiesterase 4D (Homo sapiens) (UniProt Q08499); assay: Inhibition of recombinant human N-terminal GST-tagged PDE4D3 expressed in baculovirus infected Sf9 cells at 10 uM by radioligand assay relative to control
[11] = molecular target: 3',5'-cyclic-AMP phosphodiesterase 7B (Homo sapiens) (UniProt Q9NP56); assay: Inhibition of recombinant human N-terminal GST-tagged C-terminal His-tagged PDE7B (109 to end residues) expressed in baculovirus infected Sf9 cells at 10 uM by radioligand assay relative to control
[12] = molecular target: Muscarinic acetylcholine receptor M3 (Homo sapiens) (UniProt P20309); assay: Inhibition of muscarinic M3 receptor (unknown origin) relative to control; conditions: concentration not given here
Chain of Muscarinic acetylcholine receptor M3 (Homo sapiens) (P20309 whole entry, looked up): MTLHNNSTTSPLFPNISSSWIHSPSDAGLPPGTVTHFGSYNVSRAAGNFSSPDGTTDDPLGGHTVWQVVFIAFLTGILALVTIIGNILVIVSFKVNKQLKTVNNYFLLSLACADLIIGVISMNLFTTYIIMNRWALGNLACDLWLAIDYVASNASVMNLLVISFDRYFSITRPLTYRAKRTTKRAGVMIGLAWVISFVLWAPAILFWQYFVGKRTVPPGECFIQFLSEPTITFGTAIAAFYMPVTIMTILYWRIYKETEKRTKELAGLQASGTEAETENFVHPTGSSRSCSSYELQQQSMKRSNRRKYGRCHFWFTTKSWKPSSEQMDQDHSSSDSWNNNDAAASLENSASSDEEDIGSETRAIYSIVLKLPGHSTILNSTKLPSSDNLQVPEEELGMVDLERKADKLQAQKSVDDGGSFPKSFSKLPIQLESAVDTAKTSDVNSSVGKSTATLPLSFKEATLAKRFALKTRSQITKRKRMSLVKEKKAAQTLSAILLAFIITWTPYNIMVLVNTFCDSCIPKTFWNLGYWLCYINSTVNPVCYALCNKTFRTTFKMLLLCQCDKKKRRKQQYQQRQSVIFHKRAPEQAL

[13] = molecular target: Alpha-1B adrenergic receptor (Homo sapiens) (UniProt P35368); assay: Inhibition of adrenoceptor alpha 1B (unknown origin) relative to control; conditions: concentration not given here
[14] = molecular target: Dual specificity calcium/calmodulin-dependent 3',5'-cyclic nucleotide phosphodiesterase 1C (Homo sapiens) (UniProt Q14123); assay: Inhibition of recombinant human N-terminal GST-tagged PDE1C expressed in baculovirus infected Sf9 cells at 10 uM by radioligand assay relative to control
Chain of Dual specificity calcium/calmodulin-dependent 3',5'-cyclic nucleotide phosphodiesterase 1C (Homo sapiens) (Q14123 whole entry): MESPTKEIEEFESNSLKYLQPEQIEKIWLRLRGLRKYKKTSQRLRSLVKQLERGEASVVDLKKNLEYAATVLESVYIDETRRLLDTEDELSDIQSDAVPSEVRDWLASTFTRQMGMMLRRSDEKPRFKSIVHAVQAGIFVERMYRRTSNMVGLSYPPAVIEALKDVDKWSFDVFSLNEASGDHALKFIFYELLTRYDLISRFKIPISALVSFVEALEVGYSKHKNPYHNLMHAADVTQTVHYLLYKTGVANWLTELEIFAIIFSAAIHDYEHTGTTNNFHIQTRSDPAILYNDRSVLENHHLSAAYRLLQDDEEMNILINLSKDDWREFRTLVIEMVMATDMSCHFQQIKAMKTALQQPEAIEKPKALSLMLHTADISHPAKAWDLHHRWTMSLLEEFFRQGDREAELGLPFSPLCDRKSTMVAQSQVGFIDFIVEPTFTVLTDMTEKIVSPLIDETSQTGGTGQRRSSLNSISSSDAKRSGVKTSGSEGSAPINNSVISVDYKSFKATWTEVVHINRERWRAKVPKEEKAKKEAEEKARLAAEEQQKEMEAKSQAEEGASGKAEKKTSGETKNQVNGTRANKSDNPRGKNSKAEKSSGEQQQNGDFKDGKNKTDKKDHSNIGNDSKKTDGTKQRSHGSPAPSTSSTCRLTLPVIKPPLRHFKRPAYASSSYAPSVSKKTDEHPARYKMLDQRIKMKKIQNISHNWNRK

[15] = molecular target: D(2) dopamine receptor (Homo sapiens) (UniProt P14416); assay: Inhibition of D2 (unknown origin) relative to control; conditions: concentration not given here
[16] = molecular target: High affinity cGMP-specific 3',5'-cyclic phosphodiesterase 9A (Homo sapiens) (UniProt O76083); assay: Inhibition of recombinant human N-terminal GST-tagged PDE9A2 expressed in baculovirus infected Sf9 cells at 10 uM by radioligand assay relative to control
[17] = molecular target: Dual specificity calcium/calmodulin-dependent 3',5'-cyclic nucleotide phosphodiesterase 1B (Homo sapiens) (UniProt Q01064); assay: Inhibition of recombinant human N-terminal GST-tagged PDE1B expressed in baculovirus infected Sf9 cells at 10 uM by radioligand assay relative to control
[18] = molecular target: 5-hydroxytryptamine receptor 2C (Homo sapiens) (UniProt P28335); assay: Inhibition of 5HT2C (unknown origin) relative to control; conditions: concentration not given here
[19] = molecular target: High affinity 3',5'-cyclic-AMP phosphodiesterase 7A (Homo sapiens) (UniProt Q13946); assay: Inhibition of recombinant human N-terminal GST-tagged PDE7A1 (122 to end residues) expressed in baculovirus infected Sf9 cells at 10 uM by radioligand assay relative to control
Chain of High affinity 3',5'-cyclic-AMP phosphodiesterase 7A (Homo sapiens) (Q13946 whole entry): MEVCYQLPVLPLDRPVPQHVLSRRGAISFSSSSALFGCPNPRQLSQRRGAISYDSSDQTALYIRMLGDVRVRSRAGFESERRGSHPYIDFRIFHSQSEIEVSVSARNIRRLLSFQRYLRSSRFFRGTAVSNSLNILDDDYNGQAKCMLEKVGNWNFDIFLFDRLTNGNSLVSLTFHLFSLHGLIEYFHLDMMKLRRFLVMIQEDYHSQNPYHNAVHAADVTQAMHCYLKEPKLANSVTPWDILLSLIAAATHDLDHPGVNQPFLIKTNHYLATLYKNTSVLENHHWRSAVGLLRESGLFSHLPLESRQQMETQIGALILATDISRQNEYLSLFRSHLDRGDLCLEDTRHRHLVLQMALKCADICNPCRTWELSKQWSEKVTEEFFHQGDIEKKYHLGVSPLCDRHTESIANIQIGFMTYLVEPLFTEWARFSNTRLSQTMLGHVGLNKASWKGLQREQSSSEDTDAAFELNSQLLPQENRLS

[20] = molecular target: cGMP-specific 3',5'-cyclic phosphodiesterase (Homo sapiens) (UniProt O76074); assay: Inhibition of recombinant human N-terminal GST-tagged PDE5A1 expressed in baculovirus infected Sf9 cells at 10 uM by radioligand assay relative to control
[21] = molecular target: 5-hydroxytryptamine receptor 6 (Homo sapiens) (UniProt P50406); assay: Inhibition of 5HT6 (unknown origin) relative to control; conditions: concentration not given here
[22] = molecular target: Mu-type opioid receptor (Homo sapiens) (UniProt P35372); assay: Inhibition of MOR (unknown origin) relative to control; conditions: concentration not given here
[23] = molecular target: D(4) dopamine receptor (Homo sapiens) (UniProt P21917); assay: Inhibition of D4 (unknown origin) relative to control; conditions: concentration not given here
[24] = molecular target: 5-hydroxytryptamine receptor 2C (Homo sapiens, UniProt P28335); assay: Inhibition of 5HT2C (unknown origin)
[25] = Protein binding in mouse plasma assessed as unbound fraction; format: ADME, cell-free
[26] = molecular target: Muscarinic acetylcholine receptor M1 (Homo sapiens) (UniProt P11229); assay: Inhibition of muscarinic M1 receptor (unknown origin) relative to control; conditions: concentration not given here
[27] = molecular target: cAMP and cAMP-inhibited cGMP 3',5'-cyclic phosphodiesterase 10A (Homo sapiens) (UniProt Q9Y233); assay: Inhibition of recombinant human N-terminal GST-tagged PDE10A2 expressed in baculovirus infected Sf9 cells at 10 uM by radioligand assay relative to control
Chain of cAMP and cAMP-inhibited cGMP 3',5'-cyclic phosphodiesterase 10A (Homo sapiens) (Q9Y233 whole entry, the tested form may be a part): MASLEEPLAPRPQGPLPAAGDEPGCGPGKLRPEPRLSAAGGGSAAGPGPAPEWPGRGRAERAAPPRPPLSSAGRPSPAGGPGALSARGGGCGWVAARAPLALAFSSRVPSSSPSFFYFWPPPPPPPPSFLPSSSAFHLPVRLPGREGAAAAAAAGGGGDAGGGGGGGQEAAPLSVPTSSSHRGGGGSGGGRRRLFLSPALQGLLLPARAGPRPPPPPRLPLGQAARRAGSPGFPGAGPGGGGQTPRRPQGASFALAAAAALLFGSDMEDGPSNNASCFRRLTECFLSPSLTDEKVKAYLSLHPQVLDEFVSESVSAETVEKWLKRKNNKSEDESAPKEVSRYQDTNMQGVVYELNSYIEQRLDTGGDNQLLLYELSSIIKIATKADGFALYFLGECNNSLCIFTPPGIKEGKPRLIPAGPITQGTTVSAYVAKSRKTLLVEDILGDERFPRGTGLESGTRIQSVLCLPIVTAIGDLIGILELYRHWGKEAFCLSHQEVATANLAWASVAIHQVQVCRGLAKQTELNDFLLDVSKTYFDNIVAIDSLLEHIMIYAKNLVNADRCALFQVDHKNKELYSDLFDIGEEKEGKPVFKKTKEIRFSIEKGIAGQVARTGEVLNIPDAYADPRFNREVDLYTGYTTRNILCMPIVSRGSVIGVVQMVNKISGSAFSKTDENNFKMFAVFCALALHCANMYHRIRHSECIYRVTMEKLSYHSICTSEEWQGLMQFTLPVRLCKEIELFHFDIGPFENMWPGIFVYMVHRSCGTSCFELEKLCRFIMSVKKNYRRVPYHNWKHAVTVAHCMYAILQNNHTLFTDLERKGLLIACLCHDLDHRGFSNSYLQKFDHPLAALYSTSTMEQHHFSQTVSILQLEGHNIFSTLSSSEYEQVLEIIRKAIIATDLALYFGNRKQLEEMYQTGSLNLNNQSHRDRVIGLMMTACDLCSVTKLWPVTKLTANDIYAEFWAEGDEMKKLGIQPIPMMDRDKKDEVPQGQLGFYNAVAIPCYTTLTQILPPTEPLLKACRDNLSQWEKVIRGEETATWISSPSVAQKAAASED

[28] = molecular target: Alpha-2C adrenergic receptor (Homo sapiens) (UniProt P18825); assay: Inhibition of adrenoceptor alpha 2C (unknown origin) relative to control; conditions: concentration not given here
[29] = molecular target: 5-hydroxytryptamine receptor 2A (Homo sapiens) (UniProt P28223); assay: Inhibition of 5HT2A (unknown origin) relative to control; conditions: concentration not given here
Chain of 5-hydroxytryptamine receptor 2A (Homo sapiens) (P28223 whole entry): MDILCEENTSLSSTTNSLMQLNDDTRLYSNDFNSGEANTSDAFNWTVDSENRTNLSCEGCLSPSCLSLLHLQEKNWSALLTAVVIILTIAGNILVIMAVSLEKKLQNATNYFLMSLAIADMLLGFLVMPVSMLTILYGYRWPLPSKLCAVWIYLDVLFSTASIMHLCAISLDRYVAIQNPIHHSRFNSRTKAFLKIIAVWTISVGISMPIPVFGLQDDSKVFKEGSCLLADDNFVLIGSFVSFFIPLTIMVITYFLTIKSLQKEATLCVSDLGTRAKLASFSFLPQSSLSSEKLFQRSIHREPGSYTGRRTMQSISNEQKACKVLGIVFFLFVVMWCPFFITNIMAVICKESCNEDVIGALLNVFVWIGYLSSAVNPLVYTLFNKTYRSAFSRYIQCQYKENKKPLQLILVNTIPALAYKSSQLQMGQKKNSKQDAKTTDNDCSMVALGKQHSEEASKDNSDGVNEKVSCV

[30] = molecular target: Translocator protein TSPO (Homo sapiens) (UniProt P30536); assay: Inhibition of PBR receptor (unknown origin) relative to control; conditions: concentration not given here
Chain of Translocator protein TSPO (Homo sapiens) (P30536 whole entry, looked up): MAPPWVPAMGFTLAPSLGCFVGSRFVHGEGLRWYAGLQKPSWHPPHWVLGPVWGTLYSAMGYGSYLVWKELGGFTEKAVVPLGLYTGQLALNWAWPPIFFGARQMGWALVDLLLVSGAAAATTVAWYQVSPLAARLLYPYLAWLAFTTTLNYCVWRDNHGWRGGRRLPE

[31] = molecular target: T1, Sigma intracellular receptor 2; assay: Inhibition of sigma2 receptor (unknown origin)
[32] = molecular target: Muscarinic acetylcholine receptor M5 (Homo sapiens) (UniProt P08912); assay: Inhibition of muscarinic M5 receptor (unknown origin) relative to control; conditions: concentration not given here
[33] = Metabolic stability in human Hepatocyte assessed as half life; format: ADME, tissue-based; conditions: hepatocytes
[34] = molecular target: Muscarinic acetylcholine receptor M4 (Homo sapiens) (UniProt P08173); assay: Inhibition of muscarinic M4 receptor (unknown origin) relative to control; conditions: concentration not given here
Chain of Muscarinic acetylcholine receptor M4 (Homo sapiens) (P08173 whole entry): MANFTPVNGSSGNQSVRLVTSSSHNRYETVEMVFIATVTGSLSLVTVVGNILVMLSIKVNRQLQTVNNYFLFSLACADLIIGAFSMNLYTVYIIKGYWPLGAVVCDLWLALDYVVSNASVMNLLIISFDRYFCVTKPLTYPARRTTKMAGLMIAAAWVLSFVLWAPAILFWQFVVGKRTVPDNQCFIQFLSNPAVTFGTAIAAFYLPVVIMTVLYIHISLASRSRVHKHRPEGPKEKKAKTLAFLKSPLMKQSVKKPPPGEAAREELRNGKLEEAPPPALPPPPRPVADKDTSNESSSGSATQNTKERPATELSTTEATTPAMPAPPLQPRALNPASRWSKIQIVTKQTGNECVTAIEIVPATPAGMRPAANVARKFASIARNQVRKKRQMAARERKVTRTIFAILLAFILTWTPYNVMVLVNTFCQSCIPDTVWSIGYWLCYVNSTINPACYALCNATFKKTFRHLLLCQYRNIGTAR

[35] = molecular target: Sigma non-opioid intracellular receptor 1 (Homo sapiens) (UniProt Q99720); assay: Inhibition of sigma1 receptor (unknown origin) relative to control; conditions: concentration not given here
[36] = molecular target: Alpha-2A adrenergic receptor (Homo sapiens) (UniProt P08913); assay: Inhibition of adrenoceptor alpha 2A (unknown origin) relative to control; conditions: concentration not given here
[37] = molecular target: D(3) dopamine receptor (Homo sapiens) (UniProt P35462); assay: Inhibition of D3 (unknown origin) relative to control; conditions: concentration not given here
Rattus norvegicus = species on record: Rattus norvegicus; assay: Inhibition of rat brain BZP relative to control; format: tissue-based; conditions: dose or concentration not given here
[38] = molecular target: 5-hydroxytryptamine receptor 7 (Homo sapiens) (UniProt P34969); assay: Inhibition of 5HT7A (unknown origin) relative to control; conditions: concentration not given here
[39] = molecular target: cAMP and cAMP-inhibited cGMP 3',5'-cyclic phosphodiesterase 10A (Homo sapiens) (UniProt Q9Y233); assay: Inhibition of recombinant human N-terminal GST-tagged PDE10A1 (2 to 789 residues) expressed in baculovirus infected Sf9 cells at 10 uM by radioligand assay relative to control

Chain of 5-hydroxytryptamine receptor 1A (Homo sapiens) (P08908 whole entry): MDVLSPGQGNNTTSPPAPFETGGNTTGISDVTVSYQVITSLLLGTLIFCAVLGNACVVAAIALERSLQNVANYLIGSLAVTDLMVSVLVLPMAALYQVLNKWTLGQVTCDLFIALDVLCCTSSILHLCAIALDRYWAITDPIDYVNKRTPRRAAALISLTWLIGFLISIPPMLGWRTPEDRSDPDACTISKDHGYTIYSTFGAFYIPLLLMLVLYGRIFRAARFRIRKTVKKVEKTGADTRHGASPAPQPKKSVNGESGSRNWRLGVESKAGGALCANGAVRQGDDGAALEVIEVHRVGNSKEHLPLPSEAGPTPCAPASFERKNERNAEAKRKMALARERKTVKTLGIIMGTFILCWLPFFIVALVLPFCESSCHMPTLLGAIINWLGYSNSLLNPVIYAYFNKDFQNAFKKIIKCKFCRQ

inhibition [1]: < 50% | inhibition [2]: < 50% | CLint scaled [3]: 97.1 mL/min/kg | inhibition [4]: < 50% | inhibition [5]: < 50% | inhibition [6]: < 50% | inhibition [7]: 70% | inhibition [8]: < 50% | inhibition [9]: < 50% | inhibition [10]: < 50% | inhibition [11]: < 50% | inhibition [12]: < 50% | inhibition [13]: < 50% | inhibition [14]: < 50% | inhibition [15]: < 50% | inhibition [16]: < 50% | inhibition [17]: < 50% | inhibition [18]: 59% | inhibition [19]: < 50% | inhibition [20]: < 50% | inhibition [21]: < 50% | inhibition [22]: < 50% | inhibition [23]: < 50% | IC50 [24]: > 10 µM | fraction unbound [25]: 0.027 | inhibition [26]: < 50% | inhibition [27]: < 50% | inhibition [28]: < 50% | inhibition [29]: < 50% | inhibition [30]: < 50% | IC50 [31]: 7.8 µM | inhibition [32]: < 50% | half-life [33]: 49.4 min | inhibition [34]: < 50% | inhibition [35]: < 50% | inhibition [36]: < 50% | inhibition [37]: < 50% | inhibition [38]: < 50% | inhibition [39]: < 50%
SMILES: O=C(c1nc2cccnc2n1-c1ccc(Cl)c(Cl)c1)N1CC(F)(F)C1
inhibition (Rattus norvegicus): < 50%
